Measured values published in patent US20210040062A1, “AZOLE-SUBSTITUTED PYRIDINE COMPOUND” (TAISHO PHARMACEUTICAL CO., LTD., priority 2016, published 2021).

Assays:
human CYP4F2 = target: T1, human CYP4F2 (Homo sapiens, UniProt P78329); assay: CYP4F2 inhibition test (Test Example 1); assay type: biochemical; settings: Escherichia coli membrane fraction expressing human CYP4F2, 2.5 μM luciferine derivative, room temperature 60 minutes, luminescence
T1 construct: host or cells: Escherichia coli (membrane fraction)
T1 sequence (P78329 5-520): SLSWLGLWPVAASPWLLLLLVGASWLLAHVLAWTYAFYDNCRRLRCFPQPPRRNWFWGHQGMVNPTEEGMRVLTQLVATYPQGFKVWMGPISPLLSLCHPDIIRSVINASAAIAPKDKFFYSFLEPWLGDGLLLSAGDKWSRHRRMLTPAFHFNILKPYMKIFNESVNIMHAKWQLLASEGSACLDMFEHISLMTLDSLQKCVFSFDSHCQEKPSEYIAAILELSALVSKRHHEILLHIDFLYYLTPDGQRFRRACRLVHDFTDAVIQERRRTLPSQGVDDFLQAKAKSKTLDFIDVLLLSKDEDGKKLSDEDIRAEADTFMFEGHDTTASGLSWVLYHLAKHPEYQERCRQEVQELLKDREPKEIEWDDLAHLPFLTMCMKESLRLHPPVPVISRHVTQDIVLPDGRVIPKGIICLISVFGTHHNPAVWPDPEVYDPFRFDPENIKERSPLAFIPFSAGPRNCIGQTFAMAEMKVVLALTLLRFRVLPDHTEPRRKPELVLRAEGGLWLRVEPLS
Experimental: (§1) (1) Inhibition Test for Each Compound of the Present Invention Against 20-HETE Producing Enzymes (CYP4F2 and CYP4A11)
(§2) In the CYP4F2 inhibition test, the reaction solution containing each compound [final concentration of 50 mM, KPO4 (pH 7.4), 2.5 μM, luciferine derivative and 1 mM NADPH] was added to an Escherichia coli membrane fraction (100 μg/mL, protein) in which human CYP4F2 had been expressed. In the CYP4A11 inhibition test, the reaction solution containing each compound [final concentration of 100 mM, Tris-HCl (pH 7.5), 60 μM, luciferine derivative, 1.3 mM NADP^+, 3.3 mM Glucose 6-Phosphate, 3.3 mM MgCl2 and 0.4 U/mL Glucose 6-Phosphate dehydrogenase] was added to an Escherichia coli membrane fraction (100 μg/mL, protein) in which human CYP4A11 had been expressed. Following this, the membrane fraction was left to stand at room temperature for 60 minutes to perform an enzymatic reaction. After the reaction, a luciferine detection reagent was added, and the luminescence value was measured using a plate reader.
(§3) A: Luminescence value with addition of compound
(§4) B: Luminescence value without addition of compound and enzyme
(§5) C: Luminescence value without addition of compound

human CYP4A11 = target: T2, human CYP4A11 (Homo sapiens, UniProt Q02928); assay: CYP4A11 inhibition test (Test Example 1); assay type: biochemical; settings: Escherichia coli membrane fraction expressing human CYP4A11, 60 μM luciferine derivative, room temperature 60 minutes, luminescence
T2 construct: host or cells: Escherichia coli (membrane fraction)
T2 sequence (Q02928 5-519): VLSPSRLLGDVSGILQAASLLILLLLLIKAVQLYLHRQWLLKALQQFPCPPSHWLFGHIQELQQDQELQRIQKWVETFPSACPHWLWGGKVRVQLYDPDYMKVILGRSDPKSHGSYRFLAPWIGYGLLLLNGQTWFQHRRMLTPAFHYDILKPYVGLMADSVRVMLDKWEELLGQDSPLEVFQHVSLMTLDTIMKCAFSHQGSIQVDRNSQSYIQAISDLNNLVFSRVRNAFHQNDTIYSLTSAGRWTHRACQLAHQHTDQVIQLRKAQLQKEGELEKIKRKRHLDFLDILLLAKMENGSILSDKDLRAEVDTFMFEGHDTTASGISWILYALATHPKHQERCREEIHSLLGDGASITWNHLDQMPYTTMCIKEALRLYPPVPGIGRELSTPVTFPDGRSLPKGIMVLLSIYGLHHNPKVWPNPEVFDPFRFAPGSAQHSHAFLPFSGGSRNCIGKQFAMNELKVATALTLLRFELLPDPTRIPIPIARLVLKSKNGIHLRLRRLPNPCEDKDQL
Experimental: as §1, §2, §3, §4, §5

Row | Compound | IC50 (human CYP4F2) [nM] | IC50 (human CYP4A11) [nM]
1 | CC(=O)N1CCC(C)(COc2ccc(-c3ccn[nH]3)nc2)CC1 [Example 13-2] | 10 | 640
2 | CS(=O)(=O)c1cc(F)cc(COc2ccc(-c3ccn[nH]3)nc2)c1 [Example 16-5] | 310 | 79
3 | COc1ccc(COc2ccc(-c3ccn[nH]3)nc2)cc1S(C)(=O)=O [Example 25-10] | 20 | 1100
4 | CS(=N)(=O)c1cccc(COc2ccc(-c3ccn[nH]3)nc2)c1 (single isomer, unassigned) [Example 50-2, Imino-methyl-oxo-(3-{[6-(1H-pyrazol-5-yl)pyridin-3-yl]oxymethyl}phenyl)-λ^6-sulfane] | 1200 | 250
5 | CS(=O)(=O)c1cccc(COc2ccc(-c3[nH]ncc3C#N)nc2)c1 [Example 48-2, 5-{5-[(3-Methylsulfonylphenyl)methoxy]pyridin-2-yl}-1H-pyrazole-4-carbonitrile] | 1700 | 770
6 | FC(F)(F)c1ccc(COc2ccc(-c3ccn[nH]3)nc2)cc1 [Example 25-20] | 14 | 1200
7 | Fc1cccc(COc2ccc(-c3ccn[nH]3)nc2)c1 [54-16] | 22 | 520
8 | O=C(CCC(=O)N1CCC[C@@H](COc2ccc(-c3ccn[nH]3)nc2)C1)N1CCOCC1 [Example 3-20] | 650 | 3300
9 | Fc1ccc(COc2ccc(-c3ccn[nH]3)nc2)cc1F [54-4] | 24 | 350
10 | N#Cc1cccc(COc2ccc(-c3ccn[nH]3)nc2)c1 [54-19] | 15 | 390
11 | CC(=O)N1CCC(COc2ccc(-n3cnnc3)nc2)CC1 [Example 45-5] | 1600 | 11000
12 | O=c1ccc2cc(COc3ccc(-c4ccn[nH]4)nc3)ccc2o1 [Example 25-11] | 3 | 1600
13 | CCCCNC(=O)NCC(=O)N1CCC[C@@H](COc2ccc(-c3ccn[nH]3)nc2)C1 [Example 3-41] | 180 | 230
14 | CS(=O)(=O)c1cccc(COc2ccc(-c3ncn[nH]3)nc2)c1 [Example 46-2] | 1500 | 340
15 | CCc1cccc(COc2ccc(-c3ccn[nH]3)nc2)c1 [Reference Example 53-2, 5-[(3-Ethylphenyl)methoxy]-2-(1H-pyrazol-5-yl)pyridine] | 88 | 120
16 | CN(C)C(=O)NCCC(=O)N1CCC[C@@H](COc2ccc(-c3ccn[nH]3)nc2)C1 [Example 1-35] | 320 | 890
17 | O=C(CS(=O)(=O)c1cccc(COc2ccc(-c3ccn[nH]3)nc2)c1)N1CCC1 [Example 18-4] | 85 | 76
18 | CC(=O)N[C@H]1CC[C@@H](Oc2ccc(-c3ccn[nH]3)nc2)CC1 [Example 20-6] | 310 | 22000
19 | COc1cc(COc2ccc(-c3ccn[nH]3)nc2)cc(OC)c1 [54-11] | 320 | 690
20 | Fc1cc(F)cc(COc2ccc(-c3ccn[nH]3)nc2)c1 [54-9] | 130 | 670
21 | CS(=O)(=O)c1cccc(COc2cnc(-c3ccn[nH]3)c(F)c2)c1 [Example 25-5] | 110 | 45

Further lines, results first:

Row | IC50 (human CYP4F2) [nM] | IC50 (human CYP4A11) [nM] | Compound
22 | 44 | 110 | CC(=O)N1CCC(COc2ccc(-c3ccns3)nc2)CC1 [Example 42-1, 1-(4-{[6-(1,2-Thiazol-5-yl)pyridin-3-yl]oxymethyl}piperidin-1-yl)ethanone]
23 | 290 | 2900 | COCCC(=O)N1CCC(COc2ccc(-c3ccn[nH]3)nc2)CC1 [Example 2-6]
24 | 130 | 210 | CC(C)OC(=O)N1CCC[C@@H](COc2ccc(-c3ccn[nH]3)nc2)C1 [Example 1-9]
25 | 43 | 91 | O=C(NCCC(=O)N1CCC[C@@H](COc2ccc(-c3ccn[nH]3)nc2)C1)C1CCC1 [Example 4-8]
26 | 29 | 1100 | O=C(N1CCC(COc2ccc(-c3ccn[nH]3)nc2)CC1)N1CC(F)C1 [Example 7-2]
27 | 78 | 930 | O=C(CC1CC1)N1CCC(COc2ccc(-c3ccn[nH]3)nc2)CC1 [Example 2-2]
28 | 270 | 140 | c1cc(-c2ccc(OCC3CCOCC3)cn2)[nH]n1 [Example 13-15]
29 | 45000 | 770 | NC(=O)C1(C(=O)N2CCC[C@@H](COc3ccc(-c4ccn[nH]4)nc3)C2)CC1 [Example 3-34]
30 | 5400 | 390 | O=S1(=O)CCCC(COc2ccc(-c3cn[nH]c3)nc2)C1 (stereo not drawn) [Example 43-4]
31 | 3800 | 600 | O=S1(=O)CCC(COc2ccc(-c3cn[nH]c3)nc2)CC1 [Example 43-3]
32 | 3100 | 4800 | CC(=O)N1CCC(COc2ccc(-c3c[nH]nn3)nc2)CC1 [Example 43-1, 1-(4-{[6-(1H-Triazol-4-yl)pyridin-3-yl]oxymethyl}piperidin-1-yl)ethanone]
33 | 120 | 550 | CC(=O)N1CCC(CCOc2ccc(-c3ccn[nH]3)nc2)CC1 [Example 4-1, 1-[4-(2-{[6-(1H-Pyrazol-5-yl)pyridin-3-yl]oxy}ethyl)piperidin-1-yl]ethan-1-one]
34 | 230 | 380 | CC(C)(O)CC(=O)NCCC(=O)N1CCC[C@@H](COc2ccc(-c3ccn[nH]3)nc2)C1 [Example 4-7]
35 | 3400 | 290 | O=S1(=O)CCC(CCOc2ccc(-c3cn[nH]c3)nc2)CC1 [Example 43-5]
36 | 190 | 1200 | CC(C)NC(=O)N1CCC[C@H](COc2ccc(-c3ccn[nH]3)nc2)C1 [Example 5-3]
37 | 100 | 32 | O=S(=O)(C1CC1)N1CCC[C@@H](COc2ccc(-c3ccn[nH]3)nc2)C1 [Example 10-3]
38 | 900 | 1800 | CC(=O)N(C)CCC(=O)N1CCC[C@@H](COc2ccc(-c3ccn[nH]3)nc2)C1 [Example 3-42]
39 | 19 | 640 | CN(C)C(=O)N1CCC(COc2ccc(-c3ccn[nH]3)nc2)CC1 [Example 6-1, N,N-Dimethyl-4-({[6-(1H-pyrazol-5-yl)pyridin-3-yl]oxy}methyl)piperidin-1-carboxamide]
40 | 350 | 390 | CN(C)S(=O)(=O)N1CCC(CCOc2ccc(-c3ccn[nH]3)nc2)CC1 [Example 10-24]
41 | 85 | 190 | CC(C)OC(=O)N1CCC(CCOc2ccc(-c3ccn[nH]3)nc2)CC1 [Example 1-29, Propan-2-yl 4-(2-{[6-(1H-pyrazol-5-yl)pyridin-3-yl]oxy}ethyl)piperidin-1-carboxylate]
42 | 640 | 70 | CC(=O)N1CCC[C@@H](COc2ccc(-c3ccn[nH]3)nc2)C1 [Example 1-6]
43 | 5000 | 3300 | CC(=O)N1CCCC[C@@H]1CCOc1ccc(-c2ccn[nH]2)nc1 [Example 13-5]
44 | 110 | 1500 | O=C(NC1CC1)N1CCC(COc2ccc(-c3ccn[nH]3)nc2)CC1 [Example 8-1, N-Cyclopropyl-4-({[6-(1H-pyrazol-5-yl)pyridin-3-yl]oxy}methyl)piperidin-1-carboxamide]
45 | 21 | 330 | CC(C)C(=O)N1CCC[C@H](COc2ccc(-c3ccn[nH]3)nc2)C1 [Example 1-12]
